Reference: patent publication US4798823A, “New cyclosporin analogs with modified "C-9 amino acids"” (Merck & Co., Inc., priority 1987, dated 1989)

Biological target: cyclophilin (Bos taurus, UniProt P62935)
Test: Cyclophilin binding assay
Conditions: relative to cyclosporin A (CsA); average of multiple assays
Excerpt: ^a This assay is described in detail by R. Handschumacher et. al.,

cyclophilin, sequence (P62935 whole entry): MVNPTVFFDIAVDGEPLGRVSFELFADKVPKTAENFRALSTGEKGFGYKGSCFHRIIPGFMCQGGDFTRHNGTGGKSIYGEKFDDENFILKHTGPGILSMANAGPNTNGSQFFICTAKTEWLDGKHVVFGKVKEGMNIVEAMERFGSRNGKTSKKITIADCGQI

CYCLOPHILIN BINDING (% OF CsA Activity): 179 % OF CsA Activity
Substance: cyclo[[](((2S,3R,[4R]4S)-N,4-dimethyl-4-(methylthiomethyl)-threonyl)-L-2-aminobutyrylsarcosyl-N-methyl-L-leucyl-L-valyl-N-methyl-L-leucyl-L-alanyl-D- alanyl-N-methyl-L-leucyl-N-methyl-L-leucyl-N-methyl-L-valyl-[]]) [(a)]
